From PMC12072186, “A Novel Small Molecule Enhances Stable Dopamine Delivery to the Brain in Models of Parkinson’s Disease” (International Journal of Molecular Sciences, 2025)
Read-outs that look alike come from different tables or passages of the source. One block for each compound: values may come before it.

Columns and labels:
[1] = In vivo metabolism, metabolite profiling in rat brain and plasma (LC-MS/MS); details: male, Sprague Dawley, intraperitoneal, 50 mg/kg; relative abundance brain vs plasma, rat
Procedure: In vivo metabolism: We performed a metabolism study (Figure 2) in male Sprague Dawley rats (6–8 weeks old) after a single i.p. injection of 50 mg/kg Pegasus. Plasma and brain samples were serially collected and assessed for the presence of possible phase-I and phase-II metabolites. […] The relative abundance of Pegasus and its metabolites in the brain and plasma was determined at the ionization parameters of the parent.
Metabolite profiling was performed in rat brain and plasma samples to detect phase-I and phase-II metabolites in male Sprague Dawley rats (6–8 weeks old, n = 6) injected (i.p.) with 50 mg/kg Pegasus. The formulation vehicle of Pegasus was 5% DMSO + 35% polyethylene glycol (PEG) 400 + 60% normal saline, and this formulation was used to measure the plasma and brain concentrations of Pegasus and all other metabolites. All samples obtained after Pegasus dosing in rats by the i.p. route of administration were used for metabolite profiling and compared to normal saline. Blood (n = 16 samples) was collected via retro-orbital plexus puncture 0.25, 1, 4, 6, 8, and 24 h pre-dose, and brain sampling was 1, 4, and 24 h post-dose (n = 6 per group). The brain samples were cleaned and perfused, then washed with PBS. The brains (approximately 1.5 g) were transferred to a 50 mL centrifuge tube and 36 mL of ice-cold PBS was added. The mixture was homogenized for about 1–2 min to obtain a uniform suspension. The precipitate was allowed to settle for 30 min at 4 °C, and 15 mL of the middle layer was collected. The plasma and brain samples were processed by the protein precipitation method. In total, 175 μL of acetonitrile was added to 25 μL of plasma samples. The samples were mixed, followed by centrifugation at 4000 rpm for 20 min. The supernatant from the samples was subjected to LC-MS/MS analysis.
The samples were analyzed by liquid chromatography tandem mass spectrometry (HPLC: LC series, Shimadzu, Chiyoda-ku, Tokyo, Japan; mass spectrometer: API4000 Triple Quad mass spectrometer, Applied Biosystems, Carlsbad, CA, USA). The samples (n = 6) were processed using protein precipitation and 1 mM stock solution, prepared in DMSO, spiked into acetonitrile to a final concentration of 4 µM, and processed using liquid chromatography tandem mass spectrometry, employing a linear gradient method using MH+/MH−(Q1) and product ion (MS/MS) scans. The evaluation of the Pegasus metabolites included demethylation, de-hydroxylation, amide cleavage, oxidation, de-hydrogenation, glucuronidation, sulfation, glutathione conjugation, and several other possibilities. The relative abundance of Pegasus and its metabolites in the brain and plasma was determined at the ionization parameters of the parent.

[2] = test system: MPTP-treated C57BL/6 mice; assay: Rotarod test in MPTP-treated mice; assay type: in vivo, mouse; details: MPTP 25 mg/kg i.p. day 1–5; treatment day 1–13; vs MPTP vehicle control
Procedure: (§1) MPTP was injected to male C57BL/6 mice for 5 consecutive days (Figure 4A) to destroy DA neurons, and then the mice were treated with Pegasus alone or Pegasus + Benserazide compared to L-dopa alone or L-Dopa + Benserazide.
(§2) From day 1 to day 5, MPTP was administered to all the groups except Naive at a dose of 25 mg/kg, i.p., QD. Treatment with Pegasus alone (50 mg/kg, i.p., BID), a combination of Pegasus 50 mg/kg, BID + Benserazide 10 mg/kg, QD, or a combination of L-Dopa 10 mg/kg, QD + Benserazide 10 mg/kg, QD or standalone L-Dopa 10 mg/kg, QD, started on day 1 and continued until day 13. On day 13, after the first dose of Pegasus, 4 animals/time point from each group were sacrificed at 0.5, 1, 3, 6, and 12 h, and the blood and brains were collected.
The mice were placed on an accelerating Rotarod (Columbus Instruments, Columbus, OH, USA) equipped with individual timers for each mouse. […] The mice were trained for 3 consecutive days before the final measurement.

[3] = test system: MPTP-treated C57BL/6 mice; assay: Grip strength test in MPTP-treated mice; assay type: in vivo, mouse; details: MPTP 25 mg/kg i.p. day 1–5; treatment day 1–13; vs MPTP vehicle control
Procedure: as §1, §2
The maximal muscle/grip strength of forelimbs was measured using a strength meter.

[4] = cited from earlier work
MPTP models of PD = test system: MPTP models of PD; set-up: method as in PMID 11724929; details: cited from earlier work

Kp [1]: 1.31
SMILES: NC(=O)CCC(=O)NCCc1cc(O)c(O)c(SCC(N)C(=O)O)c1 (stereo not drawn) [M11]

SMILES: N[C@@H](Cc1ccc(O)c(O)c1)C(=O)O [L-Dopa]
Latency to fall (Rotarod) [2]: significantly increased latency to fall | Forelimb grip strength [3]: significantly reversed back to normal levels | Half-life T1/2 ([4]; in combination with DDCI): 60 to 90 min | Levodopa brain entry ([4]; in combination with dopa-carboxylase enzyme inhibitor (DDCI)): up to 10% | Half-life T1/2 ([4]; levodopa administered alone): 46.2 to 64.8 min | Share of oral dose that reaches the brain ([4]; levodopa administered alone): 1% | Share reaching the brain ([4]; with DDCI and selective COMT inhibitors): up to 40%

SMILES: CN(C)c1ccc(O)c2c1C[C@H]1C[C@H]3[C@H](N(C)C)C(O)=C(C(N)=O)C(=O)[C@@]3(O)C(O)=C1C2=O [Minocycline]
Striatal cell loss (MPTP models of PD): prevents striatal cell loss
